Measurements from patent US20260138969A1 (Korea Research Institute of Chemical Technology, priority 2023, published 2026).

What was measured:
PC12 cells [1] = assay: Neuronal protective efficacy against 6-OHDA (MTT); format: cell-based; conditions: Rattus norvegicus, PC-12, 6-OHDA 40 μM, Control = 100, read-out: cell viability (AVE)
Method: (§1) The neuronal toxicity substances 6-OHDA (6-hydroxydopamine hydrobromide) and MPP+ (1-methyl-4-phenylpyridinium) were purchased from Sigma-Aldrich (Saint Louis, MO, USA) and made into 100 mM DMSO stock. PC12 cells were seeded on 96-well plates with 4 pieces of 1×10 per well and incubated for one day. The cells were pretreated with each concentration of embodied compound for 1 h. Subsequently, 40 μM 6-OHDA and 2 mM MPP^+ were added and incubated for 24 hours, respectively. Subsequently, cell viability was measured using MTT (Invitrogen, MA, USA).

SH-SY5Y cells = assay: Cytoprotective effects in MPP+-induced human neurons (CCK-8); format: cell-based; conditions: MPP+ 5 mM induced cytotoxicity, cell viability by CCK-8
Method: SH-SY5Y cells were purchased from ATCC and cultured at 37° C. and 5% CO2 in RPMI medium containing 10% FBS and 1% penicillin and streptomycin. MPP+ was purchased from Sigma Aldrich and treated with 5 mM to induce cytotoxicity.

[2] = Distribution in the mouse brain (plasma and brain AUC); format: in vivo
Method: The blood-brain barrier permeability in ICR mice was confirmed by oral administration of 10 mg/kg of test material. Male […] mice were fasted for 15 h prior to administration. The test material was administered at a dose of 10 mg/kg and a volume of 5 mL/kg, and the solvent composition was N-Methyl-2-pyrrolidone (NMP), Polyethylene glycol 400 (PEG 400), and distilled water (D.W) at a volume ratio of 10:40:50(%), respectively. After administration, blood and brain tissue samples were taken by sacrificing mice with carbon dioxide inhalation at each time point corresponding to 1, 4, and 8 hours. Whole blood was collected from the abdominal vena cava, and brain samples were collected after systemic perfusion with saline to remove as much blood as possible.
The distribution ratio in mouse plasma and brain was calculated by calculating the AUC after concentration quantification in each tissue.

PC12 cells [3] = assay: Neuronal protective efficacy against MPP+ (MTT); format: cell-based; conditions: Rattus norvegicus, PC-12, MPP 2 mM, Control = 100, read-out: cell viability (AVE)
Method: as §1

[4] = tested on: CDAHFD-induced non-alcoholic steatohepatitis mouse model; assay: CDAHFD-induced non-alcoholic steatohepatitis mouse model: liver fibrosis (Picrosirius red); format: in vivo; conditions: Selonsertib 30 mg/kg, Example 3 10 and 30 mg/kg, Example 2 10 and 30 mg/kg PO QD; CDAHFD diet 4 and 8 weeks
Method: Creation of CDAHFD-induced NASH model and drug administration were carried out by dividing C57BL/6 male mice at 3 weeks of age into 7 groups as shown in Table 16 below. The control group (G1) was fed standard feed and water. Groups G2 to G7 were fed the CDAHFD (Research Diet Inc, #A06071302) diet for 4 and 8 weeks.
Picrosirius red staining was used for histological visualization of collagen fibers. Histopathology analysis evaluated the efficacy of improving liver fibrosis.
For mice in each group, three sections of the liver fixed with 4% PFA (paraformaldehyde) were prepared with paraffin blocks. Paraffin blocks were sectioned to a thickness of 5 μm (Histocore AUTOCUT R, Leica Microsystems, Germany) and the sections were mounted on silane-coated slides (MUTO, JPN) and stored until staining.
Xylene was used to remove paraffin from the slides, and the slides were moisturized and washed. The slides were stained with a solution of Picrosirius red (ab150681, Abcam, UK) and washed off with a solution of acetic acid. The slides were fitted after dehydration and cleaning using alcohol and xylene. For each section, two images of different areas were taken using a microscope (Axioscan7, ZEISS, Germany). The fibrotic area was measured using image J software compared to the total area. FIGS. 23a and 23b are graphs and images of Picrosirius red stained area ratios in the liver of a CDAHFD-induced mouse model of nonalcoholic steatohepatitis.

[5] = biological target: T1, recombinant human ASK1 protein (Homo sapiens, UniProt Q99683); assay: Evaluation of ASK1 inhibition activity ([gamma-33P]-ATP, scintillation counting); format: biochemical; conditions: 0.5 uM; activity of group without compound set at 100%; read-out: Remaining kinase activity (%) at 0.5 uM
T1 sequence (Q99683 1-1374): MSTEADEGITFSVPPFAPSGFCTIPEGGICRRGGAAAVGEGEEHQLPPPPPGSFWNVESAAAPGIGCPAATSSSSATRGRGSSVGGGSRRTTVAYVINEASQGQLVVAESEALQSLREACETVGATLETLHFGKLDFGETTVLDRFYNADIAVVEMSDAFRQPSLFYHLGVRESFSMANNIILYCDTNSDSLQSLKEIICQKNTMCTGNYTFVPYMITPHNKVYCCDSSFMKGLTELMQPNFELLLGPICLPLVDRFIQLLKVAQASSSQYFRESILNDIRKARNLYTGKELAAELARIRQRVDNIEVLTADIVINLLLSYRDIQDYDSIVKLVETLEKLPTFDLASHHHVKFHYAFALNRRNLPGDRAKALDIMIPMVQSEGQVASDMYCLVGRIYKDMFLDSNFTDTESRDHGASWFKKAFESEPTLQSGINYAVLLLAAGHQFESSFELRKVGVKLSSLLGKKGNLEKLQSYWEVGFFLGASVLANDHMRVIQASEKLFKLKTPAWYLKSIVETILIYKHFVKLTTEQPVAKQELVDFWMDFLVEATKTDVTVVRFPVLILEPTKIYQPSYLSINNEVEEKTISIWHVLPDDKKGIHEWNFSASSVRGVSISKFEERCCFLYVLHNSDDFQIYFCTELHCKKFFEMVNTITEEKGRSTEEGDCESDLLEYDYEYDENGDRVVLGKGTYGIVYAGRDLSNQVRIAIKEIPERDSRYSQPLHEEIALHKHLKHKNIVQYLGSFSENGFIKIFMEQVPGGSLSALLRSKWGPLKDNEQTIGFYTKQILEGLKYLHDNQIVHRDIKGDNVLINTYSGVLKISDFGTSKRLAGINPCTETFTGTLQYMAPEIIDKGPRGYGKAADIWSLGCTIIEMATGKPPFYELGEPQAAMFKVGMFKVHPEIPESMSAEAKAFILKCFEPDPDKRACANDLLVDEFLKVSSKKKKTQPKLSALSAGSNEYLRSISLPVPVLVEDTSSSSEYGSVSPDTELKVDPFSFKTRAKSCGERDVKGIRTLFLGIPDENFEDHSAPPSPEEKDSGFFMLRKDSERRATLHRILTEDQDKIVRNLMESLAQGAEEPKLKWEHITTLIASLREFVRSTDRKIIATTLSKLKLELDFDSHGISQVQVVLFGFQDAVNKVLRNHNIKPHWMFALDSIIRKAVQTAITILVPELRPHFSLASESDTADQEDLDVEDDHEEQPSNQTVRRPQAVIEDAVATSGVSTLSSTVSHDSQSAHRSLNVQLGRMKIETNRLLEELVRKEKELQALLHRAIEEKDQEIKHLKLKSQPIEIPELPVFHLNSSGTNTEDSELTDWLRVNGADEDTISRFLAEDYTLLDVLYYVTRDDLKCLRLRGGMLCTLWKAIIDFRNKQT
Method: The recombinant human ASK1 protein was initiated by adding a mixture of Mg/ATP to the reaction solution (8 mM MOPS PH 7.0, 0.2 mM EDTA, 0.33 mg/mL myelin basic protein, 10 mM Mg Acetate and [gamma-33P]-ATP), and the reaction was terminated by adding 0.5% phosphoric acid after 40 min at room temperature.

[6] = tested on: Reserpine-induced fibromyalgia rat model; assay: Reserpine-induced fibromyalgia rat model: pain (von Frey test); format: in vivo; conditions: gabapentin 50 mg/kg IP QD; Example 2 3, 10, 30 mg/kg PO QD; days 1, 2, 4, 6
Method: Reserpine-induced fibromyalgia model generation and drug administration were carried out on 6-week-old male SD rats divided into 6 groups as shown in Table 15 below: control group (G1), reserpine+delivery (G2), reserpine+gabapentin 50 mg/kg (G3), reserpine+Example 2 3 mg/kg (G4), 10 mg/kg (G5), and 30 mg/kg (G6). To create a rat fibromyalgia model, reserpine (Sigma-aldrich, 1 mg/kg) dissolved in 0.5% acetic acid was administered subcutaneously once for 3 days from 3 days before the start of the experiment. Beginning on Day 1, the once-daily (QD) delivery body, gabapentin, and embodiment 2 were administered intraperitoneally (IP) or orally (PO) 2 hours before the experiment was performed.
The right hind foot tactile response test (von Frey test) was performed 5 times (before the fibromyalgia model, and on the 1st, 2nd, 4th and 6th days after the model was generated). Before all behavioral tests, rats were accustomed to the environment for 30 minutes, and all experimenters performing behavioral tests were made blind to drug administration information. Before model generation, baseline measurements were performed by performing the von Frey test on all rats. The rat was placed on a wired mesh and placed in a transparent plastic box (20×20×14 cm), and the foot withdrawal threshold was measured by applying a von Frey filament (ascending weight: 0.4, 0.6, 1.4, 2, 4, 6, 8, and 15 g, North Coast) to the middle of the right hind foot to assess foot allodynia.

[7] = tested on: MPTP-induced PD mouse model; assay: MPTP-induced PD mouse model: TH staining of striatum and substantia nigra; format: in vivo; conditions: PO QD Day 1-7; Nilotinib 40 mg/kg, Example 3 2/10/50 mg/kg, Example 2 50 mg/kg; vs MPTP group G2
Method: Mice at 7 weeks of age were divided into 7 groups as shown in Table 9 below to generate an acute MPTP model and proceed with drug administration: control group+vehicle (G1), MPTP+vehicle (G2), MPTP+Nilotinib 40 mg/kg (G3), MPTP+Example 3 2 mg/kg (G4), MPTP+Example 3 10 mg/kg (G5), MPTP+Example 3 50 mg/kg (G6), and MPTP+Example 2 50 mg/kg (G7). The test drug was administered orally (PO) at 10 ml/kg once daily (QD) from Day 1 to Day 7. The acute MPTP model will be performed at 2-hour intervals in all groups except the control group. […] was administered as intraperitoneal (IP) injection for 4 doses. The control group was given the same amount of 0.9% saline. The Pole test was performed on day 4 (after training on day 2 and day 3). On day 7, all mice were euthanized, and their brains were harvested.
Mice were euthanized with Zoletil administration for collection of tissue samples for staining and analysis of histological sections. Blood was collected from the heart of the mouse and then the residual blood was perfused with phosphate-buffered saline (PBS). For half of the mice (n=6/group), the brain was incised into the striatum, substantia nigra, and the rest of the brain, flash-frozen, and stored at −80° C. The remaining mice (n=6/group) had their brains isolated and immobilized in 4% paraformaldehyde for 24 hours at 4° C., followed by 30% sucrose in phosphate-buffered saline (PBS) containing 0.02% sodium azide and stored at 4° C. for 3 days. Immunohistochemical sections were performed on brain samples embedded with optimal cutting temperature (OCT) compounds. Samples were sectioned to a thickness of 20 μm using Leica CM1950 (Leica Microsystems, Germany) and stored at 4° C. in a preservation solution until staining with antibodies.
After staining the striatum and substantia nigra of the brain and mounting them on microscopic slides, the slides were washed with PBS containing 0.3% Triton X-100 and peroxidase block for 15 min at room temperature. The slides were washed three times with PBS containing 0.3% Triton X-100 and then blocked at RT (room temperature) for 1 hour in a solution containing PBS, 5% normal goat serum, and 0.3% Triton X-100. Tyrosine hydroxylase antibody was diluted at 1:1000 and incubated overnight at 4° C. The slides were washed with PBS solution and incubated for 1 h at RT with secondary antibody. The slides were washed with PBS solution and the sections were placed in the solution to proceed with the DAB (diaminobenzidine) reaction.
The DAB response was monitored under a microscope for 2 to 3 minutes, and the slides were washed with PBS to stop the DAB response, dehydrated, and mounted using xylene. An Olympus microscope (Olympus, SZ61, BX51) was used to visualize TH stained images. The optical density (OD) value of positive TH staining was measured in the striatum and substantia nigra and analyzed using Image J software.

[8] = oral 10 mg/kg, samples at 1, 4, 8 hours

Cc1cc(F)c(C(=O)Nc2cccc(-c3nncn3C(C)C)n2)cc1-n1cnc(C2CC2)c1 [Comparative Example 1, Selonsertib, reference compound]
viability at 0.1 µM (PC12 cells [1]; compound 0.1 μM): 87.9%
viability at 0.3 µM (PC12 cells [1]; compound 0.3 μM): 89.2%
viability at 1 µM (PC12 cells [1]; compound 1 μM): 84.1%
EC50 (SH-SY5Y cells): 89 nM
Kp ([2]; male, brain/plasma, po, 10 mg/kg): 0.004
Aukinf brain [2, 8]: 0.26 ± 0.03 ug*h · g.
Aukinf plasma [2, 8]: 69.9 ± 3.48 µg·mL·h
viability at 0.1 µM (PC12 cells [3]; compound 0.1 μM): 83.6%
viability at 0.3 µM (PC12 cells [3]; compound 0.3 μM): 81.3%
viability at 1 µM (PC12 cells [3]; compound 1 μM): 81.3%
Picrosirius red staining area in the liver [4]: significantly reduced

O=C(Nc1cccc(-n2nnc3c2CCC3)n1)c1cc(-n2cnc(C3CC3)c2)ccc1OC(F)F [Example 26, 5-(4-cyclopropyl-1H-imidazol-1-yl)-2-(difluoromethoxy)-N-(6-(5,6-dihydrocyclopenta[d][1,2,3]triazol-1 (4H)-yl)pyridin-2-yl)benzamide]
remaining activity at 0.5 µM [5]: 1%

O=C(Nc1cccc(-n2nnc3c2CCCC3)n1)c1cc(-n2cnc(C3CC3)c2)ccc1OC(F)F [Example 27]
remaining activity at 0.5 µM [5]: 4%

NCC1(CC(=O)O)CCCCC1 [Gabapentin, reference compound]
sensitivity (foot withdrawal threshold, von Frey test) [6]: gradually improved over time

Cc1cn(-c2cc(NC(=O)c3ccc(C)c(Nc4nccc(-c5cccnc5)n4)c3)cc(C(F)(F)F)c2)cn1 [Nilotinib, reference compound]
TH levels in striatum [7]: significantly higher than those in G2
